Measured values taken from patent publication US20260022142A1, “MACROCYCLIC IMMUNOMODULATORS” (Bristol-Myers Squibb Company, priority 2022, published 2026).
pIC50: −log10 of the molar value. Bridge positions count the residues as written; N and C are the ends. Square brackets hold non-standard residues; d marks the D form. Peptide text beside a SMILES is read from it. * marks the point of attachment. ξ: configuration not given here. Bip = N[C@@H](Cc1ccc(-c2ccccc2)cc1)C(=O)O; Phe(3-Me) = Cc1cccc(C[C@H](N)C(=O)O)c1; Cyclopropanecarbonyl = O=C(C1CC1)*; NMeR = CN[C@@H](CCCNC(=N)N)C(=O)O; hArg = N=C(N)NCCCC[C@H](N)C(=O)O; Cha = N[C@@H](CC1CCCCC1)C(=O)O; Cit = NC(=O)NCCC[C@H](N)C(=O)O; Thr(3ξ) = CC(O)[C@H](N)C(=O)O; Tle = CC(C)(C)[C@H](N)C(=O)O; 12Ado = NCCCCCCCCCCCC(=O)O; hSer = N[C@@H](CCO)C(=O)O; Carboxymethyl = O=C(O)C*; Orn = NCCC[C@H](N)C(=O)O; Aun = NCCCCCCCCCCC(=O)O; Dab = NCC[C@H](N)C(=O)O; Dap = NC[C@H](N)C(=O)O

Biological target: T1, PD-1/PD-L1 interaction (PE-labeled human PD-L1-Ig binding to Jurkat cell line over-expressing human PD-1) (Homo sapiens, UniProt Q15116)
T1 construct: expressed in transfected cells; host or cells: Jurkat
Test: Jurkat-PD-1 Cell Binding High-Content Screening Assay (CBA)
Type: cell-based
Conditions: Jurkat cell line over-expressing human PD-1; PE-labeled PD-L1-Ig 20 nM final; read-out: Jurkat hPD1-PDL1 IC50
In short: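 Jurkat-hPD-1 cells, DMEM/10% FCS; cpd 2 h 37° C; PE-PD-L1-Ig 20 nM final, 1 h; 4% PFA fix + Hoechst 33342, 3× dPBS wash; high-content imaging read-out.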

T1 sequence (Q15116 25-288): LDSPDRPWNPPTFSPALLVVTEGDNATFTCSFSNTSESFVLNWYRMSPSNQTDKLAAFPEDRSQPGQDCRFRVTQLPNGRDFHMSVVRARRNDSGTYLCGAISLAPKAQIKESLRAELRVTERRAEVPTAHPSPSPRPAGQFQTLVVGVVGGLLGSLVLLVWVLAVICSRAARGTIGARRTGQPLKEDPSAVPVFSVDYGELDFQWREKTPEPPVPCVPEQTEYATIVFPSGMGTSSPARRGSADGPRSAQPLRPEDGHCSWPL

Q: With `CC(=O)NCCCC[C@@H]1NC(=O)[C@H](Cc2ccc(-c3ccccc3)cc2)NC(=O)[C@H](C(C)C)NC(=O)[C@H](Cc2cccc(C)c2)NC(=O)[C@H](CC(=O)O)NC(=O)[C@H](Cc2ccc(OCC(=O)O)cc2)NC(=O)[C@H](CCCNC(=N)N)NC(=O)CSC[C@@H](C(=O)N[C@@H](CCN)C(=O)NCCCCCCCCCCC(=O)O)NC(=O)[C@H](C(C)O)NC(=O)[C@H](C(C)(C)C)NC(=O)[C@H](CC2CCCCC2)NC(=O)[C@H](CCN)NC(=O)[C@@H](CC(C)C)NC(=O)[C@H](CCCN)NC1=O` (stereo partly drawn) [Compound 3560] ({CH2CO}-RY(Carboxymethyl)D[Phe(3-Me)]V[Bip]K(Ac)[Orn][dL][Dab][Cha][Tle][Thr(3ξ)]C[Dab][Aun]-OH; thioether N-14) as the compound, how does the pIC50 read?
A: Its pIC50 is 7.75.

Q: `Cc1cccc(C[C@@H]2NC(=O)[C@H](CC(=O)O)NC(=O)[C@H](Cc3ccc(OCC(=O)O)cc3)NC(=O)[C@H](CCCNC(=N)N)NC(=O)CSC[C@@H](C(=O)N[C@H](CO)C(=O)NCCCCCCCCCCCC(=O)O)NC(=O)[C@H](C(C)O)NC(=O)[C@H](C(C)C)NC(=O)[C@H](CC3CCCCC3)NC(=O)[C@H](CCN)NC(=O)[C@@H](CC(C)C)NC(=O)[C@H](CCCN)NC(=O)[C@H](CCCNC(N)=O)NC(=O)[C@H](Cc3ccc(-c4ccccc4)cc3)NC(=O)[C@H](C(C)C)NC2=O)c1` (stereo partly drawn) [Compound 3561] ({CH2CO}-RY(Carboxymethyl)D[Phe(3-Me)]V[Bip][Cit][Orn][dL][Dab][Cha]V[Thr(3ξ)]C[dS][12Ado]-OH; thioether N-14) was tested. Which pIC50 did it give?
A: The pIC50 was 7.39.

Q: How did the pIC50 turn out when `Cc1cccc(C[C@@H]2NC(=O)[C@H](CC(=O)O)NC(=O)[C@H](Cc3ccc(OCC(=O)O)cc3)NC(=O)[C@H](CCCNC(=N)N)N(C)C(=O)CSC[C@@H](C(=O)N[C@@H](CCN)C(=O)NCCCCCCCCCCC(=O)O)NC(=O)[C@H](C(C)O)NC(=O)[C@H](C(C)C)NC(=O)[C@H](CC3CCCCC3)NC(=O)[C@H](CCN)NC(=O)[C@@H](CC(C)C)NC(=O)[C@H](CCCN)NC(=O)[C@H](CCCNC(N)=O)NC(=O)[C@H](Cc3ccc(-c4ccccc4)cc3)NC(=O)[C@H](C(C)C)NC2=O)c1` (stereo partly drawn) [Compound 3562] ({CH2CO}-[NMeR]Y(Carboxymethyl)D[Phe(3-Me)]V[Bip][Cit][Orn][dL][Dab][Cha]V[Thr(3ξ)]C[Dab][Aun]-OH; thioether N-14) was run?
A: The pIC50 was 7.55.

Q: `CC(=O)NCCCC[C@H](NC(=O)[C@@H]1CSCC(=O)N[C@@H](CCN)C(=O)N[C@@H](Cc2ccc(OCC(=O)O)cc2)C(=O)N[C@@H](CC(=O)O)C(=O)N[C@@H](Cc2cccc(C)c2)C(=O)N[C@@H](C(C)C)C(=O)N[C@@H](Cc2ccc(-c3ccccc3)cc2)C(=O)N[C@@H](CCCNC(N)=O)C(=O)N[C@@H](CCCN)C(=O)N[C@H](CC(C)C)C(=O)N[C@@H](CN)C(=O)N[C@@H](CC2CCCCC2)C(=O)N[C@@H](C(C)C)C(=O)N[C@@H](C(C)O)C(=O)N1)C(=O)NCCCCCCCCCCC(=O)O` (stereo partly drawn) [Compound 3563] ({CH2CO}-[Dab]Y(Carboxymethyl)D[Phe(3-Me)]V[Bip][Cit][Orn][dL][Dap][Cha]V[Thr(3ξ)]CK(Ac)[Aun]-OH; thioether N-14) was tested. Which pIC50 did it give?
A: Its pIC50 is 7.36.

Q: `Cc1cccc(C[C@@H]2NC(=O)[C@H](CC(=O)O)NC(=O)[C@H](Cc3ccc(OCC(=O)O)cc3)NC(=O)[C@H](CCCNC(=N)N)NC(=O)CSC[C@@H](C(=O)N[C@@H](CCO)C(=O)N[C@@H](CCC(=O)O)C(=O)NCCCCCCCCCCCC(=O)O)NC(=O)[C@H](C(C)O)NC(=O)[C@H](C(C)C)NC(=O)[C@H](CC3CCCCC3)NC(=O)[C@H](CCN)NC(=O)[C@@H](CC(C)C)NC(=O)[C@H](CCCN)NC(=O)[C@H](CCCNC(N)=O)NC(=O)[C@H](Cc3ccc(-c4ccccc4)cc3)NC(=O)[C@H](C(C)C)NC2=O)c1` (stereo partly drawn) [Compound 3564] ({CH2CO}-RY(Carboxymethyl)D[Phe(3-Me)]V[Bip][Cit][Orn][dL][Dab][Cha]V[Thr(3ξ)]C[hSer]E[12Ado]-OH; thioether N-14) was tested. Which pIC50 did it give?
A: Its pIC50 is 7.71.

Q: How did the pIC50 turn out when `Cc1cccc(C[C@@H]2NC(=O)[C@H](CC(=O)O)NC(=O)[C@H](Cc3ccc(OCC(=O)O)cc3)NC(=O)[C@H](CCCNC(=N)N)NC(=O)CSC[C@@H](C(=O)N[C@@H](CCO)C(=O)NCCCCCCCCCCCC(=O)O)NC(=O)[C@H](C(C)O)NC(=O)[C@H](C(C)C)NC(=O)[C@H](CC3CCCCC3)NC(=O)[C@H](CCN)NC(=O)[C@@H](CC(C)C)NC(=O)[C@H](CCCN)NC(=O)[C@H](CCCNC(N)=O)NC(=O)[C@H](Cc3ccc(-c4ccccc4)cc3)NC(=O)[C@H](C(C)C)NC2=O)c1` (stereo partly drawn) [Compound 3565] ({CH2CO}-RY(Carboxymethyl)D[Phe(3-Me)]V[Bip][Cit][Orn][dL][Dab][Cha]V[Thr(3ξ)]C[hSer][12Ado]-OH; thioether N-14) was run?
A: Its pIC50 is 7.40.

Q: How did the pIC50 turn out when `Cc1cccc(C[C@@H]2NC(=O)[C@H](CC(=O)O)NC(=O)[C@H](Cc3ccc(OCC(=O)O)cc3)NC(=O)[C@H](CCO)NC(=O)CSC[C@@H](C(=O)N[C@@H](CCO)C(=O)N[C@@H](CO)C(=O)NCCCCCCCCCCCC(=O)O)NC(=O)[C@H](C(C)O)NC(=O)[C@H](C(C)C)NC(=O)[C@H](CC3CCCCC3)NC(=O)[C@H](CCN)NC(=O)[C@@H](CC(C)C)NC(=O)[C@H](CCCN)NC(=O)[C@H](CCCNC(N)=O)NC(=O)[C@H](Cc3ccc(-c4ccccc4)cc3)NC(=O)[C@H](C(C)C)NC2=O)c1` (stereo partly drawn) [Compound 3566] ({CH2CO}-[hSer]Y(Carboxymethyl)D[Phe(3-Me)]V[Bip][Cit][Orn][dL][Dab][Cha]V[Thr(3ξ)]C[hSer]S[12Ado]-OH; thioether N-14) was run?
A: The pIC50 was 7.72.

Q: How did the pIC50 turn out when `Cc1cccc(C[C@@H]2NC(=O)[C@H](CC(=O)O)NC(=O)[C@H](Cc3ccc(OCC(=O)O)cc3)NC(=O)[C@H](C(C)O)NC(=O)CSC[C@@H](C(=O)N[C@@H](CCC(=O)O)C(=O)N[C@@H](CO)C(=O)NCCCCCCCCCCC(=O)O)NC(=O)[C@H](C(C)O)NC(=O)[C@H](C(C)C)NC(=O)[C@H](CC3CCCCC3)NC(=O)[C@H](CCN)NC(=O)[C@@H](CC(C)C)NC(=O)[C@H](CCCN)NC(=O)[C@H](CCCNC(N)=O)NC(=O)[C@H](Cc3ccc(-c4ccccc4)cc3)NC(=O)[C@H](C(C)C)NC2=O)c1` (stereo partly drawn) [Compound 3567] ({CH2CO}-[Thr(3ξ)]Y(Carboxymethyl)D[Phe(3-Me)]V[Bip][Cit][Orn][dL][Dab][Cha]V[Thr(3ξ)]CES[Aun]-OH; thioether N-14) was run?
A: Its pIC50 is 7.47.

Q: `Cc1cccc(C[C@@H]2NC(=O)[C@H](CC(=O)O)NC(=O)[C@H](Cc3ccc(OCC(=O)O)cc3)NC(=O)[C@H](CCCCNC(=N)N)NC(=O)CSC[C@@H](C(=O)N[C@@H](CCCN)C(=O)N[C@@H](CCO)C(=O)NCCCCCCCCCCCC(=O)O)NC(=O)[C@H](C(C)O)NC(=O)[C@H](C(C)C)NC(=O)[C@H](CC3CCCCC3)NC(=O)[C@H](CCN)NC(=O)[C@@H](CC(C)C)NC(=O)[C@H](CCCN)NC(=O)[C@H](CCCNC(N)=O)NC(=O)[C@H](Cc3ccc(-c4ccccc4)cc3)NC(=O)[C@H](C(C)C)NC2=O)c1` (stereo partly drawn) [Compound 3568] ({CH2CO}-[hArg]Y(Carboxymethyl)D[Phe(3-Me)]V[Bip][Cit][Orn][dL][Dab][Cha]V[Thr(3ξ)]C[Orn][hSer][12Ado]-OH; thioether N-14) was tested. Which pIC50 did it give?
A: The pIC50 was 7.82.

Q: With `Cc1cccc(C[C@@H]2NC(=O)[C@H](CC(=O)O)NC(=O)[C@H](Cc3ccc(OCC(=O)O)cc3)NC(=O)[C@H](CO)NC(=O)CSC[C@@H](C(=O)N[C@@H](CCO)C(=O)N[C@@H](CO)C(=O)NCCCCCCCCCCCC(=O)O)NC(=O)[C@H](C(C)O)NC(=O)[C@H](C(C)C)NC(=O)[C@H](CC3CCCCC3)NC(=O)[C@H](CCN)NC(=O)[C@@H](CC(C)C)NC(=O)[C@H](CCCN)NC(=O)[C@H](CCCNC(N)=O)NC(=O)[C@H](Cc3ccc(-c4ccccc4)cc3)NC(=O)[C@H](C(C)C)NC2=O)c1` (stereo partly drawn) [Compound 3569] ({CH2CO}-SY(Carboxymethyl)D[Phe(3-Me)]V[Bip][Cit][Orn][dL][Dab][Cha]V[Thr(3ξ)]C[hSer]S[12Ado]-OH; thioether N-14) as the compound, how does the pIC50 read?
A: The pIC50 was 7.63.

Q: `Cc1cccc(C[C@@H]2NC(=O)[C@H](CC(=O)O)NC(=O)[C@H](Cc3ccc(OCC(=O)O)cc3)NC(=O)[C@H](CCCCNC(=N)N)NC(=O)CSC[C@@H](C(=O)N[C@@H](CCN)C(=O)N[C@@H](CO)C(=O)NCCCCCCCCCCCC(=O)O)NC(=O)[C@H](C(C)O)NC(=O)[C@H](C(C)C)NC(=O)[C@H](CC3CCCCC3)NC(=O)[C@H](CCN)NC(=O)[C@@H](CC(C)C)NC(=O)[C@H](CCCN)NC(=O)[C@H](CCCNC(N)=O)NC(=O)[C@H](Cc3ccc(-c4ccccc4)cc3)NC(=O)[C@H](C(C)C)NC2=O)c1` (stereo partly drawn) [Compound 3570] ({CH2CO}-[hArg]Y(Carboxymethyl)D[Phe(3-Me)]V[Bip][Cit][Orn][dL][Dab][Cha]V[Thr(3ξ)]C[Dab]S[12Ado]-OH; thioether N-14) was tested. Which pIC50 did it give?
A: The pIC50 was 7.79.

Q: `Cc1cccc(C[C@@H]2NC(=O)[C@H](CC(=O)O)NC(=O)[C@H](Cc3ccc(OCC(=O)O)cc3)NC(=O)[C@H](CCCCNC(=N)N)NC(=O)CSC[C@@H](C(=O)N[C@@H](CCN)C(=O)N[C@@H](CO)C(=O)NCCCCCCCCCCCC(=O)O)NC(=O)[C@H](CO)NC(=O)[C@H](C(C)C)NC(=O)[C@H](CC3CCCCC3)NC(=O)[C@H](CCN)NC(=O)[C@@H](CC(C)C)NC(=O)[C@H](CCCN)NC(=O)[C@H](CCCNC(=N)N)NC(=O)[C@H](Cc3ccc(-c4ccccc4)cc3)NC(=O)[C@H](C(C)C)NC2=O)c1` [Compound 3571] ({CH2CO}-[hArg]Y(Carboxymethyl)D[Phe(3-Me)]V[Bip]R[Orn][dL][Dab][Cha]VSC[Dab]S[12Ado]-OH; thioether N-14) was tested. Which pIC50 did it give?
A: Its pIC50 is 7.77.

Q: How did the pIC50 turn out when `Cc1cccc(C[C@@H]2NC(=O)[C@H](CC(=O)O)NC(=O)[C@H](Cc3ccc(OCC(=O)O)cc3)NC(=O)[C@H](CCCNC(=O)C3CC3)NC(=O)CSC[C@@H](C(=O)N[C@@H](CCCN)C(=O)N[C@@H](CO)C(=O)NCCCCCCCCCCCC(=O)O)NC(=O)[C@H](C(C)O)NC(=O)[C@H](C(C)C)NC(=O)[C@H](CC3CCCCC3)NC(=O)[C@H](CCN)NC(=O)[C@@H](CC(C)C)NC(=O)[C@H](CCCN)NC(=O)[C@H](CCCNC(=N)N)NC(=O)[C@H](Cc3ccc(-c4ccccc4)cc3)NC(=O)[C@H](C(C)C)NC2=O)c1` (stereo partly drawn) [Compound 3572] ({CH2CO}-[Orn](Cyclopropanecarbonyl)Y(Carboxymethyl)D[Phe(3-Me)]V[Bip]R[Orn][dL][Dab][Cha]V[Thr(3ξ)]C[Orn]S[12Ado]-OH; thioether N-14) was run?
A: The pIC50 was 7.58.
